Results taken from ChEMBL document CHEMBL1201862, “PubChem BioAssay data set” (2004).
Values joined by “and” are separate entries in the source; they are usually repeats but may differ in a detail not shown here. Equal values may be shown once. Active and inactive are the calls of the source.

Columns and labels:
[1] = inhibitors of triacylglycerol buildup in H9c2 cells, dose response, cell-based, H9c2 rat cardiomyoblasts, Nile Red fluorescence, primary readout (AID 743161); format: functional
[2] = molecular target: T1, RNA-binding protein pos-1 (Caenorhabditis elegans, UniProt G5EF15); assay: inhibitors of POS-1/mex-3 RNA binding, dose response, biochemical, fluorescence polarization (AID 1964);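 also: purified POS-1 fused to maltose binding protein made in E. coli; potency of compounds blocking POS-1 binding to fluorescent RNA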
T1 sequence (G5EF15 whole entry): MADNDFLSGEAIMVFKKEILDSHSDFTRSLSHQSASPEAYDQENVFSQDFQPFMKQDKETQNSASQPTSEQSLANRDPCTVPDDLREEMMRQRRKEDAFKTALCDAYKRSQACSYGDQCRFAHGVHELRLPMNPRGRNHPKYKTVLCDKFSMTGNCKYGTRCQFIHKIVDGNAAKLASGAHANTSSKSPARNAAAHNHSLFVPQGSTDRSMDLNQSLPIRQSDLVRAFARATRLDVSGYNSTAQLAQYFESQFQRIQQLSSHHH

[3] = system: BJ; assay: cytotoxicity toward BJ-TERT fibroblasts, dose response, cell-based, RAS-independent, luminescence (AID 1933); format: functional; conditions: Homo sapiens
[4] = molecular target: T2, Zinc finger protein mex-5 (Caenorhabditis elegans, UniProt Q9XUB2); assay: MEX-5/TCR-2 RNA interaction inhibitors, dose response, biochemical, C. elegans, fluorescence polarization (AID 1960)
T2 sequence (Q9XUB2 whole entry): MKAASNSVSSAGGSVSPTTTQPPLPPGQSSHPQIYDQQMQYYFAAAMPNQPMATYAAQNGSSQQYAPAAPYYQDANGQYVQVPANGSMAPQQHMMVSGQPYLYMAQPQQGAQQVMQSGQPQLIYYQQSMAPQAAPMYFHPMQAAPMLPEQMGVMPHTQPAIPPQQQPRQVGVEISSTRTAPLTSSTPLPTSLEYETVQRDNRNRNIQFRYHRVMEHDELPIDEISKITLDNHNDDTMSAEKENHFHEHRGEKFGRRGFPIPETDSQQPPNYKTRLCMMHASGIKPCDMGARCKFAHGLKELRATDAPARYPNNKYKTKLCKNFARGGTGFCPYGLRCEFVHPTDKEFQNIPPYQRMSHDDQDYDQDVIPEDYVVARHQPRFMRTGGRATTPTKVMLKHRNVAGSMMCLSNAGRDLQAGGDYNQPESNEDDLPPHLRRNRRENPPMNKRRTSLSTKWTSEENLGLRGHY

[5] = system: BJ; assay: cells; format: functional, cell-based; conditions: Homo sapiens
[6] = system: BJ; assay: cytotoxicity toward BJ-TERT-LT-ST fibroblasts, dose response, cell-based, RAS-independent, luminescence (AID 1935); format: functional; conditions: Homo sapiens;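 also: BJ fibroblasts immortalized with TERT plus LT and ST oncogenes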
[7] = cytotoxicity toward DRD oncogenic fibroblasts, dose response, cell-based, non-viral oncogenic, luminescence (AID 1934); format: functional; conditions: Homo sapiens
[8] = molecular target: T3, Replicative DNA helicase DnaB (Mycobacterium tuberculosis, UniProt P9WMR3); assay: DnaB intein splicing inhibitors, dose response, biochemical, cell-free fluorescence (AID 449749); format: functional
T3 sequence (P9WMR3 whole entry): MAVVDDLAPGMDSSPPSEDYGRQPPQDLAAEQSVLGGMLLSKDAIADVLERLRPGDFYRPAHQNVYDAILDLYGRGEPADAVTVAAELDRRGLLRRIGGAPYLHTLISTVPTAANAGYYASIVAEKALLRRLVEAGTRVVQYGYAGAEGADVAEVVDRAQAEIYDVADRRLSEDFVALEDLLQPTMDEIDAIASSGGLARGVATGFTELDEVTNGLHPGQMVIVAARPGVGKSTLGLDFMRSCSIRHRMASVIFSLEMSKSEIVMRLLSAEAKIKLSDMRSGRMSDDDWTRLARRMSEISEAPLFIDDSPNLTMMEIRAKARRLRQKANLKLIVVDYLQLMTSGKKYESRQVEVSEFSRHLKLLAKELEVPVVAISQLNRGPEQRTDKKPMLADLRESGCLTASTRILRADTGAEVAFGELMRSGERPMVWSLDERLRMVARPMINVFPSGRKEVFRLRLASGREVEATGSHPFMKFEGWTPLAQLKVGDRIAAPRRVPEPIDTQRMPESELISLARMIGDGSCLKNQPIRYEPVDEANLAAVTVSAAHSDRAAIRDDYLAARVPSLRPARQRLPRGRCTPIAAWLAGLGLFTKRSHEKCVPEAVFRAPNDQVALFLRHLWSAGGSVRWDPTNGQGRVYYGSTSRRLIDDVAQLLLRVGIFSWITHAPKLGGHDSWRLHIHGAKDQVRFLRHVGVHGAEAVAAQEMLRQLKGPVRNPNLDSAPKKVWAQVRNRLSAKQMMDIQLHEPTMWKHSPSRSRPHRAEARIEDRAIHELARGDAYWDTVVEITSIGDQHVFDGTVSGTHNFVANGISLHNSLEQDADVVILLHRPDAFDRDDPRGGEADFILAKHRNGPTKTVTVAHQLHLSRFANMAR

[9] = system: Vero; assay: Vero cell cytotoxicity, cytotoxicity control for flavivirus capping enzyme inhibitors (AID 588742); format: functional; conditions: Chlorocebus sabaeus
[10] = molecular target: T4, Protein RecA (Mycobacterium tuberculosis, UniProt P9WHJ3); assay: Fluorescence Cell-Free Homogeneous Dose Retest to Identify Inhibitors of RecA-Intein Splicing Activity. [Related pubchem assays (depositor defined):AID2097, AID2223, AID489010, AID492950]; format: functional
T4 sequence (P9WHJ3 whole entry): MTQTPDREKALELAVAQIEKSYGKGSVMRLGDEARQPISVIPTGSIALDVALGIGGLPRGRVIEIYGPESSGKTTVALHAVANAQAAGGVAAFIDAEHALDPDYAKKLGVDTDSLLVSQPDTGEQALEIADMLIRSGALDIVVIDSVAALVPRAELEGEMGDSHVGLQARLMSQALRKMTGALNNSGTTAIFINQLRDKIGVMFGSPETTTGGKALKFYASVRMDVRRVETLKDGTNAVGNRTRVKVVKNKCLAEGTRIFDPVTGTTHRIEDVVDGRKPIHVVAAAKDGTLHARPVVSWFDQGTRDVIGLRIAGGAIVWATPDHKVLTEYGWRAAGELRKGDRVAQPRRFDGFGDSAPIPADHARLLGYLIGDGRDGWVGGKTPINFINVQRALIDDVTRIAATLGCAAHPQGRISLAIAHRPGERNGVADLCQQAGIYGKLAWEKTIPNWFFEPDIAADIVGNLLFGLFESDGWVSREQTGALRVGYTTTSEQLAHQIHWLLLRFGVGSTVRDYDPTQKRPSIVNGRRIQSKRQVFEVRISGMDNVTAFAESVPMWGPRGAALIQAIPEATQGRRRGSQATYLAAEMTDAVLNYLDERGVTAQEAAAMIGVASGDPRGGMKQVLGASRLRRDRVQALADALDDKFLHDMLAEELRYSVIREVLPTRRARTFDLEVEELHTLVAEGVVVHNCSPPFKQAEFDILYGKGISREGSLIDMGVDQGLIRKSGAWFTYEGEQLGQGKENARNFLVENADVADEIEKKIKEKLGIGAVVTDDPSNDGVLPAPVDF

[11] = molecular target: Genome polyprotein (dengue virus type 2, UniProt P29990); assay: Dengue-2 NS5 methyltransferase inhibitors, primary screen, biochemical, confirmation dose response (AID 588689); format: functional
Genome polyprotein, sequence (P29990 2492-3391 limits assumed): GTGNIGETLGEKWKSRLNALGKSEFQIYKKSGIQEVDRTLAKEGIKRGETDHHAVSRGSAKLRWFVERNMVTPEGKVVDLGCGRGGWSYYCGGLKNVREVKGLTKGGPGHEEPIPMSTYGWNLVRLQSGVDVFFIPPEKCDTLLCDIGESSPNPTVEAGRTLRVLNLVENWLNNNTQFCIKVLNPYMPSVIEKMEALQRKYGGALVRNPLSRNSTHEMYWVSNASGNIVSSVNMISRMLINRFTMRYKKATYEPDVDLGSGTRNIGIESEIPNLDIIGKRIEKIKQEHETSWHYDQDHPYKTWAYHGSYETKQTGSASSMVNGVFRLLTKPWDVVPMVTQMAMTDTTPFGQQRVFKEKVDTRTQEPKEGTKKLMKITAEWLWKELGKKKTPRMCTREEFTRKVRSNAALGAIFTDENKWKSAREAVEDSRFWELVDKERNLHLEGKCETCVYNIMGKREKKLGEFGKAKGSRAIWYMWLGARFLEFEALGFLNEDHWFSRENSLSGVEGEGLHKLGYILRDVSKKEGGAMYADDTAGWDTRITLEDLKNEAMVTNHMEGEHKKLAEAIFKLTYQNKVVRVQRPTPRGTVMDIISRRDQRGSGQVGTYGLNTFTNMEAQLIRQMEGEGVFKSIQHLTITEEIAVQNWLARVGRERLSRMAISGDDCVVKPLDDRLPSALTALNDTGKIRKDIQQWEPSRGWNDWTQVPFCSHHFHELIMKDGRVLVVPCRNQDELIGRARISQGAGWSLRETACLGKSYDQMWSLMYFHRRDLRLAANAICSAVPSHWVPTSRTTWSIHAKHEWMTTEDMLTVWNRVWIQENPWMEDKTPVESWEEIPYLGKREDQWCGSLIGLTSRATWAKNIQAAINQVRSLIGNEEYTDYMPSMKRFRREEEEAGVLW

[12] = molecular target: Protein Tat (Human immunodeficiency virus type 1 group M subtype B (isolate HXB2)(HIV-1), UniProt P04608); format: functional;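 also: tat binding to TAR RNA read out by fluorescence polarization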
Protein Tat, sequence (P04608 whole entry): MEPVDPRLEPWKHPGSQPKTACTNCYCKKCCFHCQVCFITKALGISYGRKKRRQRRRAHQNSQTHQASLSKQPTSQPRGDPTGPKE

[13] = THP-1 cell cytotoxicity, dose response, cytotoxicity control for Vif-APOBEC3G degradation inhibitor project, THP-1 cells (AID 1117359); format: functional; conditions: Human immunodeficiency virus 1, THP-1
[14] = molecular target: Glutathione-S-transferase (Schistosoma japonicum, UniProt Q26513); assay: biotin-GST/anti-GST TR-FRET signal inhibitors, dose response, artefact control for Vif-APOBEC3G degradation inhibitor project, biochemical (AID 1117362); format: functional
Glutathione-S-transferase, sequence (Q26513 whole entry): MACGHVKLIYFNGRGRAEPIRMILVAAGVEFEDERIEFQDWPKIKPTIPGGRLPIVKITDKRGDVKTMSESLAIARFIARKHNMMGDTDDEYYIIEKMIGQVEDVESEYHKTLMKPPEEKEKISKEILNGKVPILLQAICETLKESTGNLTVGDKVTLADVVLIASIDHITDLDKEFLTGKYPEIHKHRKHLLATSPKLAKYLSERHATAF

[15] = molecular target: Diphosphomevalonate decarboxylase (Streptococcus pneumoniae serotype 2 (strain D39 / NCTC 7466), UniProt Q9FD53); assay: S. pneumoniae DPM-DC inhibition retest, confirmation, biochemical, cuvette format, coupled NADH fluorescence (AID 1028); format: functional
Diphosphomevalonate decarboxylase, sequence (Q9FD53 whole entry): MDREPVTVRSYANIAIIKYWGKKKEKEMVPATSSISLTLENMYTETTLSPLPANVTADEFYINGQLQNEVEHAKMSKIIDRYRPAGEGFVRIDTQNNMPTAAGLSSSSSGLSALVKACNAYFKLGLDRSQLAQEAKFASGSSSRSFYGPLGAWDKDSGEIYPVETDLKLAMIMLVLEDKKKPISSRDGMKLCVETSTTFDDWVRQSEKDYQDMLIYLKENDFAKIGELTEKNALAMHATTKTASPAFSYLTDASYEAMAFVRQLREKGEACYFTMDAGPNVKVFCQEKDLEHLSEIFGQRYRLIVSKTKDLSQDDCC

[16] = molecular target: Sphingosine 1-phosphate receptor 2 (Homo sapiens, UniProt O95136); assay: Dose Response Cell Based Assay for Antagonists of the S1P2 Receptor. [Related pubchem assays: 856, 736 ]; format: functional
Sphingosine 1-phosphate receptor 2, sequence (O95136 whole entry): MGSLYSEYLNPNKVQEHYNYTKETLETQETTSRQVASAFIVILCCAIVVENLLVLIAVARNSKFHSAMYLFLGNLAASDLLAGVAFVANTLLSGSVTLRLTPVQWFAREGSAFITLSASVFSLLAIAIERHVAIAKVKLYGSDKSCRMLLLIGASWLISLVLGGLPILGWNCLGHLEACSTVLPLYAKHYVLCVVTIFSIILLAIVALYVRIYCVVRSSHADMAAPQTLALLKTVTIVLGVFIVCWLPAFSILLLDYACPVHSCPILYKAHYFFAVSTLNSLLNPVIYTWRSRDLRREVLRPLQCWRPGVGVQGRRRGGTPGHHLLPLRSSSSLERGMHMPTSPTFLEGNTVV

[17] = system: Streptococcus sp. 'group A'; assay: growth inhibition of control SK(-) GAS strain, dose response, counter-screen for streptokinase expression inhibitor project, luminescence, kanamycin, BacTiterGlo, confirmation (AID 1900); format: functional, organism-based
[18] = molecular target: T5, Heat shock factor protein 1 (Mus musculus, UniProt P38532); assay: inhibition of MG132-induced HSE-luciferase signal, confirmation, cell-based, NIH3T3, luminescence, dose retest (AID 2382); format: functional;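 also: NIH3T3 fibroblasts with HSF1-driven luciferase reporter stressed by proteasome inhibitor MG132; luminescence from HSF1-driven luciferase expression after 8 hours of MG132 stress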
T5 sequence (P38532 whole entry): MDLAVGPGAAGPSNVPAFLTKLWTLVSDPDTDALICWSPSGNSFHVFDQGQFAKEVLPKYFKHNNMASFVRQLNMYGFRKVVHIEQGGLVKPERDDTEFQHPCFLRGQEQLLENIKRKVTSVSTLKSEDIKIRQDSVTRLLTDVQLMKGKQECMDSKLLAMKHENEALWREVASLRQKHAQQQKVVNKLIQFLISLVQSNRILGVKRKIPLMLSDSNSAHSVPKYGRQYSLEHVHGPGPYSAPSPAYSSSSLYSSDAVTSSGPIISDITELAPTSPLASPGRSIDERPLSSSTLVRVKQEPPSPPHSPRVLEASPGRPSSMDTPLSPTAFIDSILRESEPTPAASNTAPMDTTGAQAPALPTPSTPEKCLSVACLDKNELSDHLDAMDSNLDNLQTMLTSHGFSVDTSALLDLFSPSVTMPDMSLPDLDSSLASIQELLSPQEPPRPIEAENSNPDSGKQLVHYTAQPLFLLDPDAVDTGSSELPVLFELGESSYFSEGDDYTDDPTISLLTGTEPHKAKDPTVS

[19] = molecular target: T6, Streptokinase A (Streptococcus pyogenes serotype M1, UniProt P10520); assay: S. pyogenes streptokinase expression inhibitors, potency, dose response, plasminogen activation absorbance, OD405 (AID 1914); format: functional, Streptococcus pyogenes M1 GAS;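 also: secreted streptokinase activity via plasminogen activation per viability signal from cell pellet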
T6 sequence (P10520 whole entry): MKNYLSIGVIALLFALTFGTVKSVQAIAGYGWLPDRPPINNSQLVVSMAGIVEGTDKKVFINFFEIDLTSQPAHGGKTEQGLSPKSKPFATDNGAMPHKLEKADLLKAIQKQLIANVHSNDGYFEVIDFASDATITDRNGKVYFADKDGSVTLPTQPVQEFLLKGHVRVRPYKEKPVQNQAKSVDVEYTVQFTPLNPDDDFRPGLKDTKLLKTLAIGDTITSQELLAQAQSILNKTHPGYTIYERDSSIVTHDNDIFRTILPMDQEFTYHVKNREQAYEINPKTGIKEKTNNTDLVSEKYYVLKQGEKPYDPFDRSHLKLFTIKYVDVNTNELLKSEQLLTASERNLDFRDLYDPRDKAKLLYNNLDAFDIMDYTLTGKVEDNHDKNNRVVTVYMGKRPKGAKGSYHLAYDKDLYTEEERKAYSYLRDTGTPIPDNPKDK

[20] = system: Streptococcus; assay: Group A Streptococcus viability loss, dose response, counter-screen for streptokinase expression inhibitor project, luminescence, BacTiterGlo (AID 1915); format: functional, organism-based;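 also: potency for reduction of bacterial viability or growth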
[21] = Vero cell cytotoxicity, dose response, cytotoxicity control for Vif-APOBEC3G degradation inhibitor project, Vero cells (AID 1117358); format: functional; conditions: Human immunodeficiency virus 1, Vero

COCCN1Cc2cccc(C(=O)NCc3cccc(N(C)C)c3)c2C1=O
IC50 [1]: > 50 µM (active)

O=C1C=C(Nc2cccc3cccnc23)c2ccccc2C1=O
EC50 [2]: 47.6 µM (active)
EC50 [3]: 1.57 µM (inconclusive)
EC50 [4]: 28.7 µM (active)
EC50 [5]: 3.05 µM (active)
EC50 [6]: 6.37 µM (inconclusive)
EC50 [7]: 2.77 µM (inconclusive)
AC50 [8]: > 380 µM (inactive)
CC50 [9]: 4.45 µM (active)
EC50 [10]: 2.89 µM (active)
IC50 [11]: 50.4 µM (active)
IC50 [12]: > 100 µM (active)
CC50 [13]: 0.34 µM (active)
IC50 [14]: > 100 µM (active)

O=C(NCCN1CCCC1)c1ccc(-n2sc3ccccc3c2=O)cc1
IC50 [15]: 33 µM (active)

O=C(Nc1ccc(F)cc1)c1sc2cc(C(F)(F)F)cnc2c1-c1cccs1
IC50 [16]: 2.73 µM (active) and 2.06 µM (active)

O=C(NC(=S)N1CCN(c2c(Cl)cccc2[N+](=O)[O-])CC1)c1cccs1
EC50 [17]: 4.51 µM (active)
EC50 [18]: > 195 µM (not active)
EC50 [19]: > 150 µM (not active)
EC50 [20]: 10.2 µM (active)
CC50 [21]: > 40 µM (active)
